Assay [1] has as its system rabbit PRP (plasma rich in platelets). Briefly: Platelet aggregation on rabbit PRP, agonist arachidonic acid sodium salt. The format is cell-based. To be noted: Oryctolagus cuniculus. As for the experimental part:
(§1) Male New Zealand rabbits, 2000-3000 g [Stefano Morini, S. Polo D'Enza, RE Italy], quarantined for 5 days prior beginning of the trial (anti-piatelet effect). Male Wistar rats, 250±20 g [IFFA CREDO, Italy] randomized, divided into groups of 5 animals each and fasted for 16 h prior to treatment (thromboanemia determination).
(§2) Blood was intracardially collected from rabbits, using as anticoagulant sodium citrate at a final concentration of 0.38% and centrifuged for 15′ at 150 g in order to obtain a plasma rich in platelets (PRP). PRP was used at a concentration of 3.5×10^8 platelet/ml. MED 15 and reference products were incubated with the PRP for 3′ at 37 C° prior to addition of the aggregating agent. Platelet aggregation induced by arachidonic acid, sodium salt [TAC (threshold aggregation concentration): 140 μm] and collagen (TAC: 28 μg/ml) was measured using an aggregometer (Chronolog model 500) according to the Born's method ([…]. Nature 1962; 194: 927-929) and was expressed as inhibition percentage with respect to the agonist mean response.

For assay [2] the test system is unchanged. Put plainly: Platelet aggregation on rabbit PRP, agonist collagen. Type of assay: cell-based. To be noted: Oryctolagus cuniculus. As for the experimental part: as §1, §2
The subject of the next assay is TXB2 plasma levels. Briefly: TXB2 (thromboxane) determination in rat. Type of assay: in vivo. To be noted: for TXB2 ng/ml ± S.E. / inhibition at 100 mg/kg: 100 mg/kg per os, blood 3 h after treatment; for TXB2 ng/ml ± S.E.: controls 174.1 ± 42.6; for inhibition at 100 mg/kg: po, vs controls; for % inhibition of TXB2 plasma levels: kinetics. As for the experimental part:
as §1
The animals received per OS 100 mg/kg (1.5 ml/rat) MED 15 and (acetyl salicylic acid) suspended in 1% CMC, and controls received the vehicle only. […] Tromboxane content was determined in the serum thus obtained using a RIA kit [Amersham TRK780]. The results obtained can be evaluated with reference to the following tables and figures.

Assay [3] concerns indomethacin-induced small intestine inflammation. Put plainly: Indomethacin-induced small intestine inflammation. Type of assay: in vivo, rat. As for the experimental part:
(§3) Male Wistar rats, 180±20g quarantined for at least 5days and fasted for 18 h prior to the beginning of the trial (on a grid to avoid coprophagy) with free access to water.
The animals were treated with indomethacin (7.5 mg/Kg by subcutaneous administration in NaHCO3 5%) at T=0 and T=+1 day.
MED 15 (100 mg/Kg per os in 1% CMC) was administered according to two different treatments:
Scheme no. 1: T=0, +1 and 2 days
Scheme no. 2: T=0, +1, +2, +5, +6, +7 days
24 h after the last administration the animals were killed by cervical dislocation; the small intestine (from the pylorus to the ileocecal valve), removed and opened lengthwise, was washed in physiological solution at pH 7.4 for damage evaluation.
Considered parameters are: […]
myeloperoxidase (MPO), neutrophil indicator; malondialdehyde (MDA), oxidative process indicator. data were evaluated by Student's t-test

Assay [4] deals with acetic acid-induced colitis. Put plainly: Acetic acid-induced colitis. Type of assay: in vivo, rat. Particulars: MED 15 100 mg/Kg per os at T-48 h, -24 h, -2 h; acetic acid controls 949±66. As for the experimental part: as §3
Colitis was induced in animals by administration of 5% acetic acid (1.5 ml/rat) in the distal colon lumen with an 8 cm cannula at T=0.
MED 15 (100 mg/Kg per os) was administered at T−48 h, −24 h and −2 h.
24 h after colitis induction, animals were killed by cervical dislocation and the colon removed and washed in physiological solution at pH 7.4, was examined for damage evaluation.
(§4) Considered parameters are:
malondialdehyde (MDA), oxidative process indicator.
(§5) data were evaluated by Student's t-test

The next assay has as its system TNB-induced colitis. Briefly: TNB-induced colitis. Type of assay: in vivo, rat. To be noted: MED 15 100 mg/Kg per os T=0, +1, +2, +3 days. As for the experimental part: as §3
Colitis was induced in animals by administration of 15 mg TNB (trinitrobenzosulphonic acid) in 0.25 ml of 30% ethanol in the colon lumen and with an 8 cm cannula at T=0.
MED 15 (100 mg/Kg per os in 1% CMC) was administered to:
5 h after the last administration the animals were killed by cervical dislocation, the colon (8 cm distal portion) removed for damage evaluation.
as §4
myeloperoxidase (MPO), neutrophil indicator;
as §5

The next assay concerns human ulcerative colitis. Briefly: Double-blind, controlled, randomized clinical trial in ulcerative colitis. Type of assay: in vivo. Particulars: MED 15 1200 mg/day plus 5-aminosalicylic acid, 60 days, vs 5-ASA plus placebo. As for the experimental part: A double-blind, controlled, randomized study was carried out in patients affected by two simultaneous pathologies: ulcerative colitis and osteoarticolar disease (osteoarthritis, rheumatoid arthritis, extra-articular rheumatism).
20 patients were divided into 2 homogeneous groups of 10 patients each (Group A and Group B):
Group A was treated with 5-aminosalicylic acid 1200 mg/day and placebo
Group B was treated with 5-aminosalicylic acid […] and MED 15 1200 mg/day
The following clinical evaluations were performed at the beginning of the study (T0), T15, T30, and T60 (end of therapy):
1) endoscopic examination of intestinal mucosa
2) annotation of symptomatology referred by the patients.
The severity of these parameters was expressed by a score as follows: […]

The source of these data is patent US6495590B1, “Use of amtolmetin guacyl for the production of anti-inflammatory drugs for intestinal inflammations” (Medosan Ricerca S.r.l., priority 1998, dated 2002).

Molecules are shown by their SMILES.

Consider `CC(=O)Oc1ccccc1C(=O)O` [ASA, acetylsalicylic acid, reference compound], for which the inhibition (as a rule, the percentage by which the read-out fell short of the control) at 25 µM in assay [1] (25.0 μM) stood at 0%; in assay [2] (25.0 μM), 33.7 ± 2.1%. Besides, the inhibition at 50 µM in assay [1] (50.0 μM) was found to be 83.3 ± 16.7%; in assay [2] (50.0 μM), 70.4 ± 14.9%. In addition, the inhibition at 100 µM in assay [1] (100.0 μM) and in assay [2] (100.0 μM) was 100% throughout. Besides, at 12.5 µM the inhibition in assay [2] (12.5 μM) was 18.4 ± 10.5%. The “TXB2 ng/ml ± S.E.” value in the assay with TXB2 plasma levels came out at 2.9 ± 1.1 ng/mL. The molecule further returned an inhibition at 100 mg/kg in the assay on TXB2 plasma levels of 98.3%.
With `COc1ccccc1OC(=O)CNC(=O)Cc1ccc(C(=O)c2ccc(C)cc2)n1C` [MED 15, 2-metoxyphenyl-1-methyl-5-p-methylbenzoyl-pirrol-2-acetamido acetate], in assay [3] (scheme no. 1 (acute phase, T=0, +1 and 2 days), MED 15 100 mg/Kg per os, vs indomethacin controls), the “reduction in the number of ulcers” value was 44.3%. This molecule showed a score in assay [3] (scheme no. 1, MED 15 100 mg/Kg per os, indomethacin controls 7.62±1.84) of 4.63±2.73. Further, the “tissutal levels of MPO” value in assay [3] (scheme no. 1, after MED 15 treatment 100 mg/Kg per os) is listed as “diminution”. For the same molecule, in assay [3] (scheme no. 2 (prolonged), MED 15 100 mg/Kg per os), the “decrease of score value” was 58.4%. Besides, the “decrease in number of ulcers” value in assay [3] (scheme no. 2 (prolonged, T=0, +1, +2, +5, +6, +7 days), MED 15 100 mg/Kg per os) amounted to 86.1%. This molecule showed a malondialdehyde levels in assay [4] of 719 ± 60 nmol/g. In the assay with TNB-induced colitis, the “colon walls weight, change compared to TNB control” value is on record as −28.6%; the “myeloperoxidase levels, change compared to TNB control” value is on record as −33.1%; the “score, change compared to TNB control” value is given as −35.2%. In addition, in the assay with human ulcerative colitis, the “effectiveness in ulcerative colitis (mucosal inflammation and symptomatology scores)” value is recorded as “more effective than 5-ASA”; the healing time entry is given as “dramatically reduced compared to 5-ASA”. Also, the inhibition at 0.5 µM in assay [1] (0.5 μM) was determined as 7.7%. Further, in assay [1] (1.25 μM), the inhibition at 1.25 µM came to 100%. Further, the inhibition at 2.5 µM in assay [1] (2.5 μM) was found to be 100%. The inhibition at 5 µM in assay [1] (5.0 μM) was 100%. Also, in assay [2] (0.05 μM), the inhibition at 0.05 µM came out at 0%. In assay [2] (0.10 μM), this molecule registered an inhibition at 0.1 µM of 34.3%. The molecule also displayed an inhibition at 0.39 µM in assay [2] (0.39 μM) of 100%. In addition, in the assay on TXB2 plasma levels, the “duration of the effect on TXB2 plasma levels” value turned out to be 24 h, the “TXB2 ng/ml ± S.E.” value came to 14.3 ± 1.3 ng/mL and testing at 100 mg/kg gave an inhibition of 91.8%. The “% inhibition of TXB2 plasma levels” value in the assay with TXB2 plasma levels (0.75 h) is listed as 93.2%. Besides, the “% inhibition of TXB2 plasma levels” value in the assay on TXB2 plasma levels (1.5 h) is listed as 90.8%. Also, the “% inhibition of TXB2 plasma levels” value in the assay on TXB2 plasma levels (3.0 h) was found to be 91.4%. Moreover, the “% inhibition of TXB2 plasma levels” value with TXB2 plasma levels (24.0 h) is reported as 49.2%.
